In PubChem BioAssay (NCI):
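A five-concentration, 48-hour dose response in 96-well plates underlies each endpoint, interpolated linearly between surrounding concentrations. TGI marks complete inhibition of growth.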

Tests used:
Test in all cases: NCI tumour cell line growth inhibition, 48 h
[1] = test system: 786-0 renal
[2] = test system: A498 renal
[3] = test system: A549 NSCLC
[4] = test system: ACHN renal
[5] = test system: BT-549 breast
[6] = test system: CAKI-1 renal
[7] = test system: COLO 205 colon
[8] = test system: DU-145 prostate
[9] = test system: EKVX NSCLC
[10] = test system: HCC-2998 colon
[11] = test system: HCT-116 colon
[12] = test system: HCT-15 colon
[13] = test system: HL-60(TB) leukemia
[14] = test system: HOP-92 NSCLC
[15] = test system: HS 578T breast
[16] = test system: HT29 colon
[17] = test system: IGROV1 ovarian
[18] = test system: K-562 leukemia
[19] = test system: KM12 colon
[20] = test system: LOX IMVI melanoma
[21] = test system: M14 melanoma
[22] = test system: MALME-3M melanoma
[23] = test system: MCF7 breast
[24] = test system: MDA-MB-231 breast
[25] = test system: MDA-MB-435
[26] = test system: MDA-N
[27] = test system: NCI-H226 lung
[28] = test system: NCI-H23 lung
[29] = test system: NCI-H460 lung
[30] = test system: NCI-H522 lung
[31] = test system: NCI/ADR-RES ovarian
[32] = test system: OVCAR-4 ovarian
[33] = test system: OVCAR-5 ovarian
[34] = test system: OVCAR-8 ovarian
[35] = test system: PC-3 prostate
[36] = test system: RPMI-8226 leukemia
[37] = test system: RXF 393 renal
[38] = test system: SF-268 CNS
[39] = test system: SF-539 CNS
[40] = test system: SK-MEL-2 melanoma
[41] = test system: SK-MEL-28 melanoma
[42] = test system: SK-MEL-5 melanoma
[43] = test system: SN12C renal
[44] = test system: SNB-19 CNS
[45] = test system: SNB-75 CNS
[46] = test system: SR leukemia
[47] = test system: SW-620 colon
[48] = test system: T-47D breast
[49] = test system: TK-10 renal
[50] = test system: U251 CNS
[51] = test system: UACC-257 melanoma
[52] = test system: UACC-62 melanoma
[53] = test system: UO-31 renal
[54] = test system: CCRF-CEM leukemia
[55] = test system: HOP-62 NSCLC
[56] = test system: MOLT-4 leukemia
[57] = test system: OVCAR-3 ovarian
[58] = test system: SF-295 CNS
[59] = test system: SK-OV-3 ovarian

Cc1cc(=O)oc2cc(O)c(CN(C)CC(=O)O)cc12
TGI [1]: > 100000 nM | TGI [2]: > 100000 nM | TGI [3]: > 100000 nM | TGI [4]: > 100000 nM | TGI [5]: > 100000 nM | TGI [6]: > 100000 nM | TGI [7]: > 100000 nM | TGI [8]: > 100000 nM | TGI [9]: > 100000 nM | TGI [10]: > 100000 nM | TGI [11]: > 100000 nM | TGI [12]: > 100000 nM | TGI [13]: > 100000 nM | TGI [14]: > 100000 nM | TGI [15]: > 100000 nM | TGI [16]: > 100000 nM | TGI [17]: > 100000 nM | TGI [18]: > 100000 nM | TGI [19]: > 100000 nM | TGI [20]: > 100000 nM | TGI [21]: > 100000 nM | TGI [22]: > 100000 nM | TGI [23]: > 100000 nM | TGI [24]: > 100000 nM | TGI [25]: > 100000 nM | TGI [26]: > 100000 nM | TGI [27]: > 100000 nM | TGI [28]: > 100000 nM | TGI [29]: > 100000 nM | TGI [30]: > 100000 nM | TGI [31]: > 100000 nM | TGI [32]: > 100000 nM | TGI [33]: > 100000 nM | TGI [34]: > 100000 nM | TGI [35]: > 100000 nM | TGI [36]: > 100000 nM | TGI [37]: > 100000 nM | TGI [38]: > 100000 nM | TGI [39]: > 100000 nM | TGI [40]: > 100000 nM | TGI [41]: > 100000 nM | TGI [42]: > 100000 nM | TGI [43]: > 100000 nM | TGI [44]: > 100000 nM | TGI [45]: > 100000 nM | TGI [46]: > 100000 nM | TGI [47]: > 100000 nM | TGI [48]: > 100000 nM | TGI [49]: > 100000 nM | TGI [50]: > 100000 nM | TGI [51]: > 100000 nM | TGI [52]: > 100000 nM | TGI [53]: > 100000 nM

COc1c(C)c(OC)c2c(c1O)[C@@H]1[C@@H]3Cc4c(OC)c(C)c(OC)c(O)c4[C@H](CNC(=O)c4cnc5ccccc5n4)N3[C@@H](C#N)[C@H](C2)N1C
TGI [1]: > 100 nM | TGI [2]: 8.94 nM | TGI [3]: > 100 nM | TGI [4]: > 41.4 nM | TGI [5]: 20 nM | TGI [6]: > 39.1 nM | TGI [54]: 5.4 nM | TGI [7]: 11.4 nM | TGI [8]: > 20.6 nM | TGI [9]: > 7.03 nM | TGI [11]: > 100 nM | TGI [12]: > 71.6 nM | TGI [13]: 5.54 nM | TGI [55]: > 100 nM | TGI [14]: 12.9 nM | TGI [15]: 19.2 nM | TGI [18]: 18 nM | TGI [19]: 3.82 nM | TGI [20]: > 27.3 nM | TGI [21]: 5.68 nM | TGI [22]: 4.58 nM | TGI [23]: > 100 nM | TGI [24]: 32 nM | TGI [25]: 6.22 nM | TGI [26]: 3.62 nM | TGI [56]: 2.62 nM | TGI [27]: 6.22 nM | TGI [28]: 12.1 nM | TGI [29]: > 100 nM | TGI [30]: 5.16 nM | TGI [31]: > 100 nM | TGI [57]: 16.8 nM | TGI [32]: 8.98 nM | TGI [33]: > 100 nM | TGI [34]: 21.2 nM | TGI [35]: > 55.6 nM | TGI [37]: > 36.8 nM | TGI [38]: > 100 nM | TGI [58]: > 29.4 nM | TGI [39]: 10.4 nM | TGI [40]: 7.33 nM | TGI [41]: 7.33 nM | TGI [42]: 18.7 nM | TGI [59]: > 44.5 nM | TGI [43]: > 71.8 nM | TGI [44]: > 53.3 nM | TGI [45]: 5.52 nM | TGI [46]: 1.4 nM | TGI [47]: > 31.3 nM | TGI [48]: 6.76 nM | TGI [49]: 24.8 nM | TGI [50]: > 36.1 nM | TGI [51]: 7.56 nM | TGI [52]: 3.46 nM | TGI [53]: > 42.3 nM
